Results taken from patent publication US4820828A, “Cinnamohydroxamic acids” (Ortho Pharmaceutical Corporation, priority 1987, dated 1989).
Where two headings read alike, the source gives them in different places.

Assays:
5-lipoxygenase = target: T1, 5-lipoxygenase (Rattus norvegicus, UniProt P12527); test: Inhibition of 5-lipoxygenase in a cell-free homogenate of RBL-1 cells (production of lipoxygenase products from 14C-arachidonic acid); type: biochemical; settings: rat RBL-1 40,000 xg supernatant; for IC50: 50% inhibition of lipoxygenase product generation
T1 construct: The cell-free homogenate was prepared by sonication of the cells followed by centrifugation at 40,000 xg; endogenous in cells; host or cells: RBL-1 (rat basophilic leukemia) cells, 40,000 xg supernatant of the sonicated homogenate
T1 sequence (P12527 1-673): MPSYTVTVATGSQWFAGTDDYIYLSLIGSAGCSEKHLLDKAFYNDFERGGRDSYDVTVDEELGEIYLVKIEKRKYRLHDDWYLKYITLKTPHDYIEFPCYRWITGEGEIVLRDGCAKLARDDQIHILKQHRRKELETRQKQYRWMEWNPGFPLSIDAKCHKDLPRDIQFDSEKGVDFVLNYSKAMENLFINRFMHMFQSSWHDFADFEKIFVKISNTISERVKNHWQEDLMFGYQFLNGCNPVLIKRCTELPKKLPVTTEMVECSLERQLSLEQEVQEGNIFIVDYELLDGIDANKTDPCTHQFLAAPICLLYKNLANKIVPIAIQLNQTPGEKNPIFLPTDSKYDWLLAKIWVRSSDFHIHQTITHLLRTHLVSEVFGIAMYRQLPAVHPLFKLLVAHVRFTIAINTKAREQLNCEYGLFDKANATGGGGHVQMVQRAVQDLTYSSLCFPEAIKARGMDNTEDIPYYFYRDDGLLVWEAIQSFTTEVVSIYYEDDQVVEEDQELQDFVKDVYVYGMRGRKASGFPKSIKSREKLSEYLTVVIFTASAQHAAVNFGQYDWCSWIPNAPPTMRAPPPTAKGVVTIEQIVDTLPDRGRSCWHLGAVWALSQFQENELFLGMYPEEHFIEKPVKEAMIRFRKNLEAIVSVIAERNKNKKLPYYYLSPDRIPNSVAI
Description: The inhibition of 5-lipoxygenase was tested in a cell-free homogenate by the procedure of Jakschik, B. et al., Biochem.Biophys.Res.Comm. 95, 103 (1980). Basically, rat basophilic leukemia cells (RBL-1 cells) were maintained in culture in a suitable medium, and were collected by centrifugation prior to assay. The cell-free homogenate was prepared by sonication of the cells followed by centrifugation at 40,000 xg. The CaCl2 dependent production of lipoxygenase products from ^14 C-arachidonic acid in the 40,000 xg supernatant was monitored in the presence of buffer (or other vehicle) or drug. Products were isolated by acidification and extraction, followed by thin layer chromatography. Radioactive areas corresponding to authentic lipoxygenase products were quantitated by liquid scintillation counting. Data was reported as the IC50, the concentration causing 50% inhibition of the generation of lipoxygenase products. The results are shown in Table II as the percent inhibition at 3 μM or the amount of compound necessary to cause 50% inhibition.

[1] = test system: Arachidonate Induced Bronchospasm; test: Pulmonary mechanics assay: inhibition of arachidonate induced bronchospasm in anesthetized guinea pigs; type: in vivo, guinea pig (male Hartley); settings: Cavia porcellus, guinea pig, % inhibition of control; for inhibition in vivo at 15 mg/kg: dose 15 mg/kg IV; for inhibition in vivo at 50 mg/kg: dose 50 mg/kg ID; for inhibition in vivo at 10 mg/kg: dose 10 mg/kg ID; for inhibition in vivo at 25 mg/kg: dose 25 mg/kg ID; for inhibition in vivo at 100 mg/kg: dose 100 mg/kg ID
Description: The bronchodilating activity of the compounds was tested in a pulmonary mechanics assay. Basically, male Hartley guinea pigs (~400-500 g) were anesthetized with urethane (2 g/kg, i.p.) and placed in a whole body plethysmograph. Cannulations of a jugular vein and carotid artery were performed for compound administration and monitoring blood presure, respectively. The trachea was cannulated for respiration at a constant volume via a miniature starling pump. A Validyne differential pressure transducer (±20 cm H2 O) sensed transpleural pressure via a 15 gauge needle inserted into the pleural cavity and a sidearm from the tracheal cannula. Tidal volume was sensed by another Validyne differential pressure transducer (±2 cm H2 O) from pressure changes inside the plethysmograph. An on-line Buxco pulmonary mechanics computer calculated air flow, dynamic lung compliance and lung resistance. The values were recorded on a print-out.
The guinea pigs were pretreated with succinyl choline (1.2 mg/kg, i.v.) to arrest spontaneous respiration. A control challenge of arachidonic acid (0.5-1.0 mg/kg, i.v.) was administered, and the animals were then dosed with the test compound by various routes. At least 10 minutes were allowed to expire between arachidonic acid challenges. A second challenge was given and compared to the control response. This comparison was indicative of cyclooxygenase inhibition. Indomethacin (10 mg/kg, i.v.) was administered immediately after the second challenge. A third challenge of a higher dose of arachidonic acid (5-10 mg/kg, i.v.) was given. This response was induced by SRS-A and compared to the responses elicited by a separate control group of animals. Activity was indicative of lipoxygenase inhibition. Propranolol (0.005 mg/kg, i.v.) may be given prior to the third challenge to enhance the response to SRS-A.
Bronchoconstriction induced by arachidonic acid with or without indomethacin was expressed as maximum percent change in dynamic lung compliance (Cdyn) and maximum percent increase in lung resistance (RL). Each guinea pig served as its own control for cyclooxygenase evaluation, while a treated group was compared to a control group for lipoxygenase evaluation. The results are shown in Table II and are expressed as the percent inhibition of control.

[2] = with indomethacin (10 mg/kg, i.v.), read-out: Bronchodilating Activity, % Inhibition of Arachidonate Induced Bronchospasm, with Indomethacin
[3] = without indomethacin, read-out: Bronchodilating Activity, % Inhibition of Arachidonate Induced Bronchospasm, without Indomethacin
[4] = iv, with indomethacin (10 mg/kg, i.v.), read-out: Bronchodilating Activity, % Inhibition of Arachidonate Induced Bronchospasm, with Indomethacin

| inhibition at 3 µM (5-lipoxygenase) [%] | Compound | inhibition in vivo at 15 mg/kg [1, 2] [%] | inhibition in vivo at 15 mg/kg [1, 3] [%] | also measured |
| --- | --- | --- | --- | --- |
| 44 | COc1cccc(/C=C/C(=O)N(C)O)c1OC [Example 19, 2,3-Dimethoxy-N--methylcinnamohydroxamic acid] | 70 | 34 |  |
| 100 | COc1cc(/C=C/C(=O)N(C)O)cc(OC)c1 [Example 18, 3,5-Dimethoxy-N--methylcinnamohydroxamic acid] | 78 | 48 |  |
| 41 | COc1cccc(OC)c1/C=C/C(=O)N(C)O [Example 22, 2,6-Dimethoxy-N--methylcinnamohydroxamic acid] |  |  |  |
| 54 | COc1cccc(/C=C/C(=O)N(C)O)c1 [Example 24, 3-Methoxy-N--methylcinnamohydroxamic acid] | 66 | 28 | inhibition in vivo at 50 mg/kg [1, 4]: 49%; inhibition in vivo at 50 mg/kg [1, 3]: 0% |
| 65 | CN(O)C(=O)/C=C/c1cc(C(C)(C)C)c(O)c(C(C)(C)C)c1 [Example 27, 3,5-Di-t-butyl-4-hydroxy-N--methyl-cinnamo-hydroxamic acid] | 89 | 56 |  |
| 100 | COc1ccc(/C=C/C(=O)N(C)O)c(OC)c1 [Example 20, 2,4-Dimethoxy-N--methylcinnamohydroxamic acid] |  |  | IC50 (5-lipoxygenase): 430 nM; inhibition in vivo at 25 mg/kg [1, 4]: 46%; inhibition in vivo at 25 mg/kg [1, 3]: 46% |
| 50 | CN(O)C(=O)/C=C/c1ccccc1 [Example 17, N--Methylcinnamohydroxamic acid] |  |  | inhibition in vivo at 50 mg/kg [1, 4]: 0%; inhibition in vivo at 50 mg/kg [1, 3]: -35% |
| 30 | CN(O)C(=O)/C=C/c1ccc(Cl)c([N+](=O)[O-])c1 [Example 23, 4-Chloro-3-nitro-N--methylcinnamohydroxamic acid] |  |  |  |

The next lines start with the compound.

| Compound | inhibition at 3 µM (5-lipoxygenase) [%] | inhibition in vivo at 15 mg/kg [1, 2] [%] | inhibition in vivo at 15 mg/kg [1, 3] [%] | also measured |
| --- | --- | --- | --- | --- |
| COc1ccc(/C=C/C(=O)N(C)O)cc1OC [Example 4, 3,4-Dimethoxy-N-methylcinnamohydroxamic acid] | 89 | 90 | 82 | IC50 (5-lipoxygenase): 600 nM |
| COc1cc(/C=C/C(=O)N(C)O)cc(OC)c1OC [Example 3, 3,4,5-Trimethoxy-N-methycinnamohydroxamic acid] | 91 | 89 | 0 |  |
| CN(O)C(=O)/C=C/c1ccc(Cl)cc1Cl [Example 14, 2,4-Dichloro-N--methylcinnamohydroxamic acid] | 88 |  |  |  |
| COc1ccc(OC)c(/C=C/C(=O)N(C)O)c1 [Example 2, 2,5-Dimethoxy-N-methylcinnamohydroxamic acid] | 53 | 49 | 65 |  |
| COc1ccccc1/C=C\C(=O)N(C)O [Example 9, Cis-2-methoxy-N--methylcinnamohydroxamic acid] | 59 | 36 | 29 |  |
| CN(O)C(=O)/C=C/c1c(Cl)cccc1Cl [Example 15, 2,6-Dichloro-N--methylcinnamohydroxamic acid] | 24 |  |  |  |
| COc1cc(/C=C/C(=O)N(C)O)cc(OC)c1O [Example 10, 3,5-Dimethoxy-4-hydroxy-N--methylcinnamohydroxamic acid] | 17 |  |  |  |
| CN(O)C(=O)/C=C/c1ccc2c(c1)OCCO2 [Example 13, 3,4-(1,2-Ethylenedioxy)-N--methylcinnamohydroxamic acid] | 53 |  |  |  |
| CN(O)C(=O)/C=C/c1ccc(Cl)c(Cl)c1 [Example 16, 3,4-Dichloro-N--methylcinnamohydroxamic acid] | 87 | 86 | 62 |  |
| COc1ccc(/C=C/C(=O)NO)cc1OC [Example 6, 3,4-Dimethoxycinnamohydroxamic acid] | 17 |  |  | inhibition in vivo at 10 mg/kg [1, 4]: 61%; inhibition in vivo at 10 mg/kg [1, 3]: 77% |
| COc1ccc(/C=C/C(=O)N(C)O)cc1 [Example 25, 4-Methoxy-N--methylcinnamohydroxamic acid] |  | 29 | 0 | IC50 (5-lipoxygenase): 1300 nM |
| Cc1ccc(/C=C/C(=O)N(C)O)cc1 [Example 7, N,4-Dimethylcinnamohydroxamic acid] |  | 89 | 96 | IC50 (5-lipoxygenase): 550 nM; inhibition in vivo at 100 mg/kg [1, 4]: 0%; inhibition in vivo at 100 mg/kg [1, 3]: 59% |
| CN(O)C(=O)/C=C/c1ccc2c(c1)OCO2 [Example 12, 3,4-Methylenedioxy-N--methylcinnamohydroxamic acid] | 53 | 58 | 15 |  |
| CN(O)C(=O)/C=C/c1ccc(F)cc1 [Example 1, 4-Fluoro-N-methylcinnamohydroxamic acid] | 30 |  |  |  |
| CN(O)C(=O)/C=C/c1ccc(Cl)cc1 [Example 26, 4-Chloro-N--methylcinnamohydroxamic acid] |  | 70 | 87 |  |
| COc1ccccc1/C=C/C(=O)N(C)O [Example 8, 2-Methoxy-N--methylcinnamohydroxamic acid] | 66 | 73 | 94 | inhibition in vivo at 50 mg/kg [1, 4]: 58%; inhibition in vivo at 50 mg/kg [1, 3]: -76% |
| CN(O)C(=O)/C=C/c1ccc(Cl)c(O)c1 [Example 5, 4-Chloro-3-hydroxy-N-methylcinnamohydroxamic acid] | 35 |  |  |  |
